# Assays:
# Notum [1] = molecular target: T1, Notum (Homo sapiens, UniProt Q6P988, C330S); test: Thermal shift assay (SYPRO Orange) of Notum; settings: compound 500 µM; for Thermoflour melting curve fluorescence of Notum: Fig 2c
# T1 sequence (Q6P988 81-451 C330S): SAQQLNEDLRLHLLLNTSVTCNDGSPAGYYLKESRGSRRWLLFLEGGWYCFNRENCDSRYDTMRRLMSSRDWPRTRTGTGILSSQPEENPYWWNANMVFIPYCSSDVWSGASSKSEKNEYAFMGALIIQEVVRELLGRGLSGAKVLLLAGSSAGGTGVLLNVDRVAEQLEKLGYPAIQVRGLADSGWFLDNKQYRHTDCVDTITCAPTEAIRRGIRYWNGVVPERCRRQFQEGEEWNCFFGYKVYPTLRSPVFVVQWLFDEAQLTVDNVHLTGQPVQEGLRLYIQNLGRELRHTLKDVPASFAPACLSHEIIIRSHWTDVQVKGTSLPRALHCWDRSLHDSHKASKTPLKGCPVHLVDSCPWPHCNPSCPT
# Description: Reference wells, i.e. solutions without compounds were used to compare the melting temperature (Tm). The experiments were performed in triplicate.
# Notum [2] = molecular target: T1, Notum; test: Notum activity assay with OPTS as substrate; assay type: biochemical; set-up: The human Notum enzyme core comprising amino acids S81–T451 with a C330S mutation; made in house; dialyzed conditioned medium used without purification; settings: result in words
# Description: OPTS is a common lipase substrate with an octanoyl lipid linked to a fluorescent moiety. It is not a natural Notum substrate; however, it can be used to quantify the enzymatic activity of purified Notum protein[23],[25],[28]. […] The fluorescent lipase substrate OPTS was dissolved in water at a concentration of 20 µM. […] The inhibition curves were fitted with a one-site model with GraphPad Prism 8 software.
# Notum [3] = molecular target: T1, Notum; test: SPR equilibrium binding to biotinylated Notum on streptavidin chip; set-up: The human Notum enzyme core comprising amino acids S81–T451 with a C330S mutation; made in house; dialyzed conditioned medium used without purification; settings: result in words
# Description: The human Notum core sequence was cloned in a pHL-Avi3 vector[49] and co-transfected with the pDisplay_BirA-ER plasmid[50] into HEK293T cells with the media supplemented with 20 µM biotin. This procedure allows in vivo biotinylation to occur, and the dialyzed conditioned medium was directly used for SA sensor chip immobilization without protein purification. […] Approximately 2500 resonance units (RU) of the biotinylated Notum was coupled onto the chip. […] The response was plotted versus the concentration of the analytes and fitted by nonlinear regression to a one-site saturation binding model (GraphPad Prism 8).
compound,measurement,setting,value
"Cn1c(=O)[nH]c2ncn(C)c2c1=O [paraxanthine, 1,7-dimethylxanthine]",Thermoflour melting curve fluorescence of Notum,Notum [1]; Temperature 24.5,1987.07
same,Thermoflour melting curve fluorescence of Notum,Notum [1]; Temperature 25.5,1782.57
same,Thermoflour melting curve fluorescence of Notum,Notum [1]; Temperature 26.5,1579.35
same,Thermoflour melting curve fluorescence of Notum,Notum [1]; Temperature 27.5,1384.26
same,Thermoflour melting curve fluorescence of Notum,Notum [1]; Temperature 28.5,1239.77
same,Thermoflour melting curve fluorescence of Notum,Notum [1]; Temperature 29.5,1129.04
same,Thermoflour melting curve fluorescence of Notum,Notum [1]; Temperature 30.5,1031.12
same,Thermoflour melting curve fluorescence of Notum,Notum [1]; Temperature 31.5,918.053
same,Thermoflour melting curve fluorescence of Notum,Notum [1]; Temperature 32.5,770.537
same,Thermoflour melting curve fluorescence of Notum,Notum [1]; Temperature 33.5,609.721
same,Thermoflour melting curve fluorescence of Notum,Notum [1]; Temperature 34.5,426.953
same,Thermoflour melting curve fluorescence of Notum,Notum [1]; Temperature 35.5,213.386
same,Thermoflour melting curve fluorescence of Notum,Notum [1]; Temperature 36.5,-34.2239
same,Thermoflour melting curve fluorescence of Notum,Notum [1]; Temperature 37.5,-296.182
same,Thermoflour melting curve fluorescence of Notum,Notum [1]; Temperature 38.5,-499.812
same,Thermoflour melting curve fluorescence of Notum,Notum [1]; Temperature 39.5,-637.629
same,Thermoflour melting curve fluorescence of Notum,Notum [1]; Temperature 40.5,-751.582
same,Thermoflour melting curve fluorescence of Notum,Notum [1]; Temperature 41.5,-837.247
same,Thermoflour melting curve fluorescence of Notum,Notum [1]; Temperature 42.5,-891.039
same,Thermoflour melting curve fluorescence of Notum,Notum [1]; Temperature 43.5,-901.613
same,Thermoflour melting curve fluorescence of Notum,Notum [1]; Temperature 44.5,-863.856
same,Thermoflour melting curve fluorescence of Notum,Notum [1]; Temperature 45.5,-795.543
same,Thermoflour melting curve fluorescence of Notum,Notum [1]; Temperature 46.5,-693.454
same,Thermoflour melting curve fluorescence of Notum,Notum [1]; Temperature 47.5,-545.549
same,Thermoflour melting curve fluorescence of Notum,Notum [1]; Temperature 48.5,-352.113
same,Thermoflour melting curve fluorescence of Notum,Notum [1]; Temperature 49.5,-114.575
same,Thermoflour melting curve fluorescence of Notum,Notum [1]; Temperature 50.5,165.368
same,Thermoflour melting curve fluorescence of Notum,Notum [1]; Temperature 51.5,475.15
same,Thermoflour melting curve fluorescence of Notum,Notum [1]; Temperature 52.5,801.618
same,Thermoflour melting curve fluorescence of Notum,Notum [1]; Temperature 53.5,1178.09
same,Thermoflour melting curve fluorescence of Notum,Notum [1]; Temperature 54.5,1624.42
same,Thermoflour melting curve fluorescence of Notum,Notum [1]; Temperature 55.5,2146.78
same,Thermoflour melting curve fluorescence of Notum,Notum [1]; Temperature 56.5,2764.33
same,Thermoflour melting curve fluorescence of Notum,Notum [1]; Temperature 57.5,3495.42
same,Thermoflour melting curve fluorescence of Notum,Notum [1]; Temperature 58.5,4462.48
same,Thermoflour melting curve fluorescence of Notum,Notum [1]; Temperature 59.5,5756.59
same,Thermoflour melting curve fluorescence of Notum,Notum [1]; Temperature 60.5,7495.13
same,Thermoflour melting curve fluorescence of Notum,Notum [1]; Temperature 61.5,9729.04
same,Thermoflour melting curve fluorescence of Notum,Notum [1]; Temperature 62.5,12262.8
same,Thermoflour melting curve fluorescence of Notum,Notum [1]; Temperature 63.5,14775.9
same,Thermoflour melting curve fluorescence of Notum,Notum [1]; Temperature 64.5,17022.5
same,Thermoflour melting curve fluorescence of Notum,Notum [1]; Temperature 65.5,18955.6
same,Thermoflour melting curve fluorescence of Notum,Notum [1]; Temperature 66.5,20556.8
same,Thermoflour melting curve fluorescence of Notum,Notum [1]; Temperature 67.5,21849.9
same,Thermoflour melting curve fluorescence of Notum,Notum [1]; Temperature 68.5,22932.3
same,Thermoflour melting curve fluorescence of Notum,Notum [1]; Temperature 69.5,23847.9
same,Thermoflour melting curve fluorescence of Notum,Notum [1]; Temperature 70.5,24631
same,Thermoflour melting curve fluorescence of Notum,Notum [1]; Temperature 71.5,25359.6
same,Thermoflour melting curve fluorescence of Notum,Notum [1]; Temperature 72.5,25975.5
same,Thermoflour melting curve fluorescence of Notum,Notum [1]; Temperature 73.5,26515.7
same,Thermoflour melting curve fluorescence of Notum,Notum [1]; Temperature 74.5,27075.8
same,Thermoflour melting curve fluorescence of Notum,Notum [1]; Temperature 75.5,27622.8
same,Thermoflour melting curve fluorescence of Notum,Notum [1]; Temperature 76.5,28157.3
same,Thermoflour melting curve fluorescence of Notum,Notum [1]; Temperature 77.5,28616.3
same,Thermoflour melting curve fluorescence of Notum,Notum [1]; Temperature 78.5,29028.5
same,Thermoflour melting curve fluorescence of Notum,Notum [1]; Temperature 79.5,29470.8
same,Thermoflour melting curve fluorescence of Notum,Notum [1]; Temperature 80.5,29930.8
same,Thermoflour melting curve fluorescence of Notum,Notum [1]; Temperature 81.5,30385.9
same,Thermoflour melting curve fluorescence of Notum,Notum [1]; Temperature 82.5,30819.6
same,Thermoflour melting curve fluorescence of Notum,Notum [1]; Temperature 83.5,31270.2
same,Thermoflour melting curve fluorescence of Notum,Notum [1]; Temperature 84.5,31691.8
same,Thermoflour melting curve fluorescence of Notum,Notum [1]; Temperature 85.5,32102.2
same,Thermoflour melting curve fluorescence of Notum,Notum [1]; Temperature 86.5,32523.2
same,Thermoflour melting curve fluorescence of Notum,Notum [1]; Temperature 87.5,32949.1
same,Thermoflour melting curve fluorescence of Notum,Notum [1]; Temperature 88.5,33332.7
same,Thermoflour melting curve fluorescence of Notum,Notum [1]; Temperature 89.5,33682.6
same,Thermoflour melting curve fluorescence of Notum,Notum [1]; Temperature 90.5,34084.7
same,Thermoflour melting curve fluorescence of Notum,Notum [1]; Temperature 91.5,34496.3
same,Thermoflour melting curve fluorescence of Notum,Notum [1]; Temperature 92.5,34921.9
same,Thermoflour melting curve fluorescence of Notum,Notum [1]; Temperature 93.5,35339.5
same,Thermoflour melting curve fluorescence of Notum,Notum [1]; Temperature 94.5,35764.6
same,Thermoflour melting curve fluorescence of Notum,Notum [1]; Temperature 95.5,36159.7
same,Thermoflour melting curve fluorescence of Notum,Notum [1]; Temperature 96.5,36500.9
same,Thermoflour melting curve fluorescence of Notum,Notum [1]; Temperature 97.5,36857
same,Effect on Tm of Notum,Notum [1],little effect on the Tm
same,Melting temperature (Tm) of Notum,Notum [1]; Notum without compounds Tm 63.6 °C,63.5 °C
same,Notum inhibitory effect in OPTS enzyme assay,Notum [2],could not detect obvious Notum inhibitory effects
same,Binding to Notum (SPR response),Notum [3],did not observe significant responses
same,Binding to Notum (SPR response),Notum [3]; listed as Paraxanthine,do not bind Notum
